Source: PMC5707067, “Farnesyl phenolic enantiomers as natural MTH1 inhibitors from Ganoderma sinense” (Oncotarget, 2017)

What was measured:
[1] = CCK8 cytotoxicity assay, Vero; format: cell-based, African green monkey; conditions: African green monkey, Vero kidney cells (normal tissue cell line), CCK8, 48 h
Excerpt: (§1) The growth inhibitory effects of the isolated farnesyl phenolic compounds (1–8) against carcinoma cell lines [human osteosarcoma cells (U2OS), human colorectal carcinoma cells (SW620), human ES-2 ovarian carcinoma cells (ES-2)] and normal tissue cell lines [human hepatic cells (Lo2), African green monkey kidney vero cells (Vero)] were further investigated using CCK8 assay method (Table 3).
(§2) Carcinoma cell lines [human osteosarcoma cells (U2OS), human colorectal carcinoma cells (SW620), human ES-2 ovarian carcinoma cells (ES-2)] and normal tissue cell lines [human hepatic cells (Lo2), African green monkey kidney Vero cells (Vero)] The U2OS, SW620, ES-2, Lo2 and Vero were obtained from ATCC (Manassas, VA, USA). The SW620 and Vero cells were cultured in Roswell Park Memorial Institute medium (RPMI), with 10% fetal bovine serum (Hyclone) and 1% penicillin-streptomycin (Sigma). Lo2, U2OS and ES-2 cells were grown in Dulbecco's modified eagle medium (DMEM), with 10% fetal bovine serum (Hyclone) and 1% penicillin-streptomycin (Sigma). All of these cells were cultured at 37°C in a humidified atmosphere with 5% CO2. For CCK8 assay cytotoxicity evaluation of compounds, all cells were separately plated at a density of 1 × 10^4 cells/well in a 96 well plate. Cells were cultivated at 37°C in 5% CO2 atmosphere for 24 h, then medium in the wells was replaced with fresh medium containing compounds which were diluted in 8 dilution steps covering the range from 200 μM to 1.5625 μM. And DMSO was used as negative control. After 48 h incubation, 10 μL of CCK8 solution was added to each well. After 30 min, the optical density (OD) of each well was measured at wavelength of 450 nm on spectrophotometer. Data were corrected for background (no-cell control) and expressed as a percentage of the value for untreated cells. The IC50 values of the isolated compounds were derived from the mean OD values of the triplicate tests versus the drug concentration curves.

[2] = system: human colorectal carcinoma cells (SW620); test: CCK8 cytotoxicity assay, SW620; format: cell-based; conditions: CCK8, 48 h, carcinoma cell line
Excerpt: as §1, §2

[3] = target: T1, MTH1 (Homo sapiens, UniProt P36639); test: Enzyme inhibition assay (8-oxo-dGTP hydrolysis, HPLC); format: biochemical; set-up: hexa-histidine (His6) (N, cleaved yes); made in house; host or cells: E. coli BL21 Star; conditions: 8-oxo-dGTP 25 μM, purified MTH1
Experimental: Microscale thermophoresis method (MST) was employed to assay the binding affinity between the compounds and MTH1. This technology can quantify protein-protein interactions or protein-small molecule interactions with high sensitivity through detecting fluorescent changes of molecules during thermophoresis.
To identify the efficacy of the eight compounds, an enzyme inhibition assay was carried out. […] Then the reaction was stop by the addition of 20 μL ice-cold Na2EDTA (50 mM). The reaction mixture was centrifugated at 15000 rpm at 4°C for 10 min. 20 μL of supernatant was injected on an HPLC column (Ultimate AQ-C18 RP-18e, 250 mm × 4.6 mm × 5 μm), and eluted isolate with 100 mM Na2HPO4-NaOH (pH 5.5)/MeOH 95:5 with flow rate 1 mL/min at column room of 30°C. […] Measurements were done in triplet, and IC50 values were calculated to compare the efficiency of various compounds.

[4] = target: T1, MTH1; test: Microscale thermophoresis (MST) binding assay
Experimental: Microscale thermophoresis method (MST) was employed to assay the binding affinity between the compounds and MTH1. […] The dissociation constant Kd values were automatically calculated by using the NT Analysis software (Nano Temper Technologies, München, Germany).
Recombinant human MTH1 was labeled with the Monolith NT™ Protein Labeling Kit RED (Cat#L001) according to the supplied labeling protocol [32]. Labelled MTH1 was kept constant at 100 nM, while all samples tested were diluted in a 20 mM HEPES (pH 7.5) and 0.05 (v/v) % Tween-20. Compounds were diluted in 12 dilution steps covering the range from 500 μM to 200 nM. After 10 min incubation at room temperature about 37°C, samples were loaded into Monolith™ standard-treated capillaries and the thermophoresis was measured at 25°C after 30 min incubation on a Monolith NT.115 instrument (NanoTemper Technologies, München, Germany). Laser power was set to 20% using 30 seconds on-time. The LED power was set to 100%. The dissociation constant Kd values were fitted by using the NTAnalysis software (NanoTemper Technologies, München, Germany). The Kd value of the binding was obtained in two ways. The first way was calculated by thermophoresis curve when there was no fluorescent change during the initial fluorescence scanning. The second way was calculated from the initial fluorescence scanning curve when compounds bound in the sites which directly interfered the fluorescence.

[5] = system: human osteosarcoma cells (U2OS); test: CCK8 cytotoxicity assay, U2OS; format: cell-based; conditions: CCK8, 48 h, carcinoma cell line
Excerpt: as §1, §2

[6] = CCK8 cytotoxicity assay, Lo2; format: cell-based, human; conditions: human, Lo2 human hepatic cells (normal tissue cell line), CCK8, 48 h
Excerpt: as §1, §2

[7] = system: human ES-2 ovarian carcinoma cells (ES-2); test: CCK8 cytotoxicity assay, ES-2; format: cell-based; conditions: CCK8, 48 h, carcinoma cell line
Excerpt: as §1, §2

[8] = system: African green monkey kidney vero cells (Vero); test: CCK8 cytotoxicity assay, Vero; format: cell-based; conditions: CCK8, 48 h, normal tissue cell line
Excerpt: as §1, §2

[9] = system: human hepatic cells (Lo2); test: CCK8 cytotoxicity assay, Lo2; format: cell-based; conditions: CCK8, 48 h, normal tissue cell line
Excerpt: as §1, §2

[10] = Homo sapiens, Ovarian carcinoma cell

IC50 [3] [µM]	Kd [4] [µM]	SMILES	IC50 at 48 h [1] [µM]	IC50 ([2]; Homo sapiens, SW-620) [µM]	IC50 ([5]; Homo sapiens, U2OS) [µM]	IC50 at 48 h [6] [µM]	IC50 [7, 10] [µM]	IC50 [8] [µM]	IC50 [2] [µM]	IC50 [5] [µM]	IC50 [9] [µM]	IC50 [7] [µM]
26.6 ± 1.03	210 ± 42.7	CO[C@@]1(c2cc(O)cc(O)c2)C=C(CC/C=C(\CO)CC/C=C(\C)COC(=O)/C=C/c2ccc(O)cc2)C(=O)O1 [Compound 8]	> 300	55.2 ± 1.16	95.4 ± 1.05	> 300	60.9 ± 1.34					
22.9 ± 1.07	4.63 ± 0.519	C/C(=C\CCC(CO)CCCC1=C[C@@H](c2cc(O)ccc2O)OC1=O)COC(=O)/C=C/c1ccc(O)cc1 (stereo partly drawn) [Compound 4, (5S)-3-{9-[(E)-coumaroyl]-4-hydroxymethyl-8-methyl-7-nonene}-5-(2,5-dihydroxyphenyl)-2(5H)-furanone]	> 300	56.5 ± 1.15	66.4 ± 1.11	279.1 ± 2.17	64.2 ± 1.28					
22.9 ± 1.04	246 ± 38.7	C/C(=C\CCC(CO)CCCC1=C[C@H](c2cc(O)ccc2O)OC1=O)COC(=O)/C=C/c1ccc(O)cc1 (stereo partly drawn) [Compound 3, (5R)-3-{9-[(E)-coumaroyl]-4-hydroxymethyl-8-methyl-7-nonene}-5-(2,5-dihydroxyphenyl)-2(5H)-furanone]	> 300	70.9 ± 1.08	73.2 ± 1.24	> 300	90.6 ± 1.12					
16.3 ± 1.03	296 ± 13.3	CO[C@]1(c2cc(O)ccc2O)C=C(CCCC(CO)CC/C=C(\C)COC(=O)/C=C/c2ccc(O)cc2)C(=O)O1 (stereo partly drawn) [Compound 5, (5R)-3-{9-[(E)-coumaroyl]-4-hydroxymethyl-8-methyl-7-nonene}-5-(2,5-dihydroxyphenyl)-5-methoxy-2(5H)-furanone]	> 300		64.4 ± 1.08	> 300	80.1 ± 3.56					
8.62 ± 1.03	113 ± 25.4	CO[C@@]1(c2cc(O)ccc2O)C=C(CCCC(CO)CC/C=C(\C)COC(=O)/C=C/c2ccc(O)cc2)C(=O)O1 (some centres unmarked) [Compound 6]	> 300	53.7 ± 1.06	57.8 ± 1.07	> 300	37.3 ± 3.56					
28.5 ± 1.05	103 ± 32.1	CO[C@]1(c2cc(O)cc(O)c2)C=C(CC/C=C(\CO)CC/C=C(\C)COC(=O)/C=C/c2ccc(O)cc2)C(=O)O1 [Compound 7]	> 300	101 ± 1.07	96.3 ± 1.13	> 300	74.5 ± 1.17					
11 ± 1.03	2.38 ± 0.663	CO[C@@]1(c2cc(O)cc(O)c2)C=C(CCCC(CO)CC/C=C(\C)COC(=O)/C=C/c2ccc(O)cc2)C(=O)O1 (stereo partly drawn) [Compound 2, (5S)-3-{9-[(E)-coumaroyl]-4-hydroxymethyl-8-methyl-7-nonene}-5-(3,5-dihydroxyphenyl)-5-methoxy-2(5H)-furanone]	260.4 ± 1.16	104 ± 1.07	54.2 ± 1.1	> 300	76.8 ± 1.09					
		C[C@H](Oc1cc(-c2cnn(C3CCNCC3)c2)cnc1N)c1c(Cl)ccc(F)c1Cl [(S)-crizotinib, reference compound]						16.7 ± 1.15	17.5 ± 1.11	32.3 ± 1.28	26 ± 1.2	9.09 ± 1.06
